{
  "source": "paper PMC3862409",
  "about": "(International Journal for Parasitology, Drugs and Drug …, 2013)",
  "key": {"[1]": {"biological_target": "T1, T. brucei hexokinase 1 (TbHK1), WT (Trypanosoma brucei brucei, UniProt Q38C42)", "T1 sequence (Q38C42 1-471)": "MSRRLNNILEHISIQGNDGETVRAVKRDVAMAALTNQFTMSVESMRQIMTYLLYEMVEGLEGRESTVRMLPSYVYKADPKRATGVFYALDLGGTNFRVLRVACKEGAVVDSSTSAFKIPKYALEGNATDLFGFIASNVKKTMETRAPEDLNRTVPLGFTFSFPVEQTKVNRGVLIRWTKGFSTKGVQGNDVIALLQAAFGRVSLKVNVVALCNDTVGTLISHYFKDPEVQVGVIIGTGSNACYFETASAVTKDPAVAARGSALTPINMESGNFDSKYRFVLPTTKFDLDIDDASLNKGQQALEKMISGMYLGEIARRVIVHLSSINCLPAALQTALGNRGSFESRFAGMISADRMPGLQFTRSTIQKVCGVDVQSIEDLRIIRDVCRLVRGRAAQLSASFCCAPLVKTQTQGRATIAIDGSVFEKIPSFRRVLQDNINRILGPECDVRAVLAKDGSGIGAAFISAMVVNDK", "assay": "Coupled hexokinase assay", "format": "biochemical"}, "TbHK1 [2]": {"biological_target": "T2, TbHK1 (Trypanosoma brucei brucei, UniProt Q38C42)", "T2 sequence (Q38C42 1-471)": "T1 sequence (Q38C42 1-471)", "conditions": "ref Sharlow et al., 2010b, cited from earlier work; for Inhibition of TbHK1: LOPAC screen, at 10 μM"}, "T. brucei parasites": {"tested_on": "T. brucei parasites", "conditions": "ref Sharlow et al., cited from earlier work; for EC50: read-out: EC50 against parasites, unit inferred, 2010a,b; for Toxicity to parasites: 2010b"}, "parasite G6-P levels": {"tested_on": "parasite G6-P levels", "conditions": "after acute exposure; ref Sharlow et al., 2010a,b; cited from earlier work"}, "[3]": {"tested_on": "HK from Plasmodium falciparum (PfHK)", "conditions": "ref Harris et al., 2013, cited from earlier work"}, "TbHK1 C212S": {"biological_target": "T3, TbHK1 C212S (Trypanosoma brucei brucei, UniProt Q38C42, C212S)", "T3 sequence (Q38C42 1-471 C212S)": "T1 sequence (Q38C42 1-471) with C212S", "assay": "Coupled hexokinase assay, TbHK1 Cys variant C212S", "format": "biochemical"}, "TbHK1 C242A": {"biological_target": "T4, TbHK1 C242A (Trypanosoma brucei brucei, UniProt Q38C42, C242A)", "T4 sequence (Q38C42 1-471 C242A)": "T1 sequence (Q38C42 1-471) with C242A", "assay": "Coupled hexokinase assay, TbHK1 Cys variant C242A", "format": "biochemical"}, "TbHK1 C369A": {"biological_target": "T5, TbHK1 C369A (Trypanosoma brucei brucei, UniProt Q38C42, C369A)", "T5 sequence (Q38C42 1-471 C369A)": "T1 sequence (Q38C42 1-471) with C369A", "assay": "Coupled hexokinase assay, TbHK1 Cys variant C369A", "format": "biochemical"}, "TbHK1 C401A": {"biological_target": "T6, TbHK1 C401A (Trypanosoma brucei brucei, UniProt Q38C42, C401A)", "T6 sequence (Q38C42 1-471 C401A)": "T1 sequence (Q38C42 1-471) with C401A", "assay": "Coupled hexokinase assay, TbHK1 Cys variant C401A", "format": "biochemical"}, "TbHK1 C402A": {"biological_target": "T7, TbHK1 C402A (Trypanosoma brucei brucei, UniProt Q38C42, C402A)", "T7 sequence (Q38C42 1-471 C402A)": "T1 sequence (Q38C42 1-471) with C402A", "assay": "Coupled hexokinase assay, TbHK1 Cys variant C402A", "format": "biochemical"}, "TbHK1 C445A": {"biological_target": "T8, TbHK1 C445A (Trypanosoma brucei brucei, UniProt Q38C42, C445A)", "T8 sequence (Q38C42 1-471 C445A)": "T1 sequence (Q38C42 1-471) with C445A", "assay": "Coupled hexokinase assay, TbHK1 Cys variant C445A", "format": "biochemical"}, "[4]": {"tested_on": "glucose-6-phosphate dehydrogenase (G6PDH)", "assay": "Counterscreen for inhibition of G6PDH", "format": "biochemical"}, "TbHK1 [5]": {"biological_target": "T2, TbHK1", "assay": "Native gel analysis of TbHK1 oligomerization", "conditions": "data not shown"}, "[6]": {"tested_on": "human indoleamine 2,3-dioxygenase (IDO)", "conditions": "covalent modification of multiple Cys residues; ref Terentis et al., 2010; cited from earlier work"}, "[7]": {"conditions": "cited from earlier work"}},
  "note": "Where a chain is given by its changes, count along the chain named. Entries after “also recorded” stand apart in the source; their conditions may differ.",
  "data": [
    {"smiles": "O[C@@H](CS)[C@@H](O)CS", "note": "(racemic) [DTT, dithiothreitol]", "values": [
      {"measurement": "Impact on enzyme activity", "setting": "[1]; DTT alone, 100 mM", "value": "little impact on enzyme activity"}
    ]},
    {"smiles": "O=C(O)c1cc[c]([Hg][Cl])cc1", "note": "[4-chloromercuribenzoic acid]", "values": [
      {"measurement": "Inhibition of TbHK1", "setting": "TbHK1 [2]", "value": "84.7 ± 0.4", "unit": "%"}
    ]},
    {"smiles": "O=c1c2ccccc2sn1-c1ccccc1", "note": "[EbS, 2-phenyl-1,2-benzisothiazol-3(2H)-one]", "values": [
      {"measurement": "EC50", "setting": "T. brucei parasites", "value": "30 ± 67", "unit": "nM"},
      {"measurement": "Toxicity to parasites", "setting": "T. brucei parasites", "value": "toxic to parasites"},
      {"measurement": "Effect on parasite G6-P levels", "setting": "parasite G6-P levels", "value": "able to reduce parasite G6-P levels"},
      {"measurement": "Reversibility of PfHK inhibition by dilution", "setting": "[3]", "value": "completely relieved by dilution"}
    ]},
    {"smiles": "O=c1c2ccccc2[se]n1-c1ccccc1", "note": "[EbSe, 2-phenyl-1,2-benzisoselenazol-3(2H)-one]", "values": [
      {"measurement": "IC50", "setting": "[1]", "value": "350 ± 70", "unit": "nM"},
      {"measurement": "Reversibility of inhibition by dilution", "setting": "[1]; 200-fold dilution of enzyme and inhibitor after pre-incubation", "value": "not reversible; also recorded: irreversible"},
      {"measurement": "Rescue of enzyme activity by DTT added after inhibitor incubation", "setting": "[1]; DTT 100 mM added after incubation with inhibitor", "value": "only modestly rescued enzyme activity"},
      {"measurement": "Relief of inhibition by excess Mg2+", "setting": "[1]; Mg2+ at ~15-fold higher concentrations than standard reaction, data not shown", "value": "did not relieve EbSe inhibition"},
      {"measurement": "Effect of pre-incubation of TbHK1 with DTT on inhibition", "setting": "[1]; data not shown", "value": "prevented EbSe inhibition"},
      {"measurement": "Effect of pre-incubation with MPB on inhibition", "setting": "[1]; enzyme pre-incubated with MPB", "value": "did not appreciably alter EbSe inhibition"},
      {"measurement": "Sensitivity of variant to inhibition", "setting": "TbHK1 C212S", "value": "remained sensitive"},
      {"measurement": "IC50", "setting": "TbHK1 C212S; read-out: EbSe IC50, relative to WT", "value": "< 350", "unit": "nM"},
      {"measurement": "IC50", "setting": "TbHK1 C242A", "value": "550 ± 20", "unit": "nM"},
      {"measurement": "IC50", "setting": "TbHK1 C369A", "value": "260 ± 20", "unit": "nM"},
      {"measurement": "IC50", "setting": "TbHK1 C401A", "value": "290 ± 40", "unit": "nM"},
      {"measurement": "IC50", "setting": "TbHK1 C402A", "value": "430 ± 110", "unit": "nM"},
      {"measurement": "IC50", "setting": "TbHK1 C445A", "value": "520 ± 50", "unit": "nM"},
      {"measurement": "Inhibition of G6PDH in counterscreen", "setting": "[4]", "value": "ineffective"},
      {"measurement": "Impact on oligomerization of TbHK1", "setting": "TbHK1 [5]", "value": "neither EbSe nor TCEP impact oligomerization"},
      {"measurement": "Inhibition of TbHK1", "setting": "TbHK1 [2]", "value": "88.1 ± 0.6", "unit": "%"},
      {"measurement": "Mode of inhibition", "setting": "TbHK1 [2]; with respect to ATP", "value": "mixed inhibitors"},
      {"measurement": "EC50", "setting": "T. brucei parasites", "value": "2900 ± 280", "unit": "nM"},
      {"measurement": "Toxicity to parasites", "setting": "T. brucei parasites", "value": "toxic to parasites"},
      {"measurement": "Effect on parasite G6-P levels", "setting": "parasite G6-P levels", "value": "able to reduce parasite G6-P levels"},
      {"measurement": "Potency against PfHK relative to TbHK1", "setting": "[3]; more potent on PfHK", "value": "~10", "unit": "fold"},
      {"measurement": "Reversibility of PfHK inhibition by dilution", "setting": "[3]", "value": "completely relieved by dilution"},
      {"measurement": "Inhibition of human IDO", "setting": "[6]", "value": "inhibited"},
      {"measurement": "Toxicity to humans", "setting": "[7]; human, in vivo", "value": "non-toxic"},
      {"measurement": "Outcome of patients suffering stroke", "setting": "[7]; ref Yamaguchi et al., 1998", "value": "improve the outcome"}
    ]},
    {"smiles": "O=C(CCCCC1SCC2NC(=O)NC21)NCCCCC(NC(=O)CCN1C(=O)C=CC1=O)C(=O)O", "note": "(stereo not drawn) [MPB, 3-(N-maleimidopropionyl)-biocytin]", "values": [
      {"measurement": "Impact on enzyme activity", "setting": "[1]; MPB at concentrations up to 50 μM", "value": "did not impact enzyme activity"}
    ]},
    {"smiles": "O=C(O)CCP(CCC(=O)O)CCC(=O)O", "note": "[TCEP, tris (2-carboxyethyl)phosphine]", "values": [
      {"measurement": "Impact on oligomerization of TbHK1", "setting": "TbHK1 [5]", "value": "neither EbSe nor TCEP impact oligomerization"}
    ]}
  ]
}
